Key:
Format in all cases: functional
NCI-H460 = assay: Growth inhibition of human NCI-H460 cells after 48 hrs by sulforhodamine B assay; conditions: NCI-H460, 48 h
[1] = Growth inhibition of human Hs 578T cells assessed as cell growth at 10 uM after 48 hrs by sulforhodamine B assay relative to control; conditions: read-out: Activity
OVCAR-3 = assay: Growth inhibition of human OVCAR3 cells after 48 hrs by sulforhodamine B assay; conditions: OVCAR-3, 48 h
HT-29 = assay: Growth inhibition of human HT-29 cells after 48 hrs by sulforhodamine B assay; conditions: HT-29, 48 h; for CC50: read-out: LC50 (the source's name)
T47D = assay: Growth inhibition of human T47D cells assessed as cell growth at 10 uM after 48 hrs by sulforhodamine B assay relative to control; conditions: read-out: Activity
786-0 = assay: Growth inhibition of human 786-0 cells assessed as cell growth at 10 uM after 48 hrs by sulforhodamine B assay relative to control; conditions: 786-0, 48 h, read-out: Activity
SR = assay: Growth inhibition of human SR cells assessed as cell growth at 10 uM after 48 hrs by sulforhodamine B assay relative to control; conditions: read-out: Activity
[2] = Growth inhibition of human Hs 578T cells after 48 hrs by sulforhodamine B assay; conditions: for CC50: read-out: LC50 (the source's name)
SW-620 [3] = assay: Growth inhibition of human SW620 cells after 48 hrs by sulforhodamine B assay; conditions: SW-620, 48 h
U-251 = assay: Growth inhibition of human U251 cells assessed as cell growth at 10 uM after 48 hrs by sulforhodamine B assay relative to control; conditions: U-251, 48 h, read-out: Activity
SN12C [4] = assay: Growth inhibition of human SN12C cells assessed as cell growth at 10 uM after 48 hrs by sulforhodamine B assay relative to control; conditions: read-out: Activity
HOP-62 = assay: Growth inhibition of human HOP62 cells after 48 hrs by sulforhodamine B assay; conditions: HOP-62, 48 h
K562 = assay: Growth inhibition of human K562 cells assessed as cell growth at 10 uM after 48 hrs by sulforhodamine B assay relative to control; conditions: K562, 48 h, read-out: Activity
OVCAR-4 = assay: Growth inhibition of human OVCAR4 cells assessed as cell growth at 10 uM after 48 hrs by sulforhodamine B assay relative to control; conditions: OVCAR-4, 48 h, read-out: Activity
IGROV-1 = assay: Growth inhibition of human IGROV1 cells assessed as cell growth at 10 uM after 48 hrs by sulforhodamine B assay relative to control; conditions: IGROV-1, 48 h, read-out: Activity
SW-620 [5] = assay: Growth inhibition of human SW620 cells assessed as cell growth at 10 uM after 48 hrs by sulforhodamine B assay relative to control; conditions: SW-620, 48 h, read-out: Activity
SNB-19 = assay: Growth inhibition of human SNB19 cells after 48 hrs by sulforhodamine B assay; conditions: SNB-19, 48 h; for CC50: read-out: LC50 (the source's name)
M14 = assay: Growth inhibition of human M14 cells assessed as cell growth at 10 uM after 48 hrs by sulforhodamine B assay relative to control; conditions: M14, 48 h, read-out: Activity
SK-OV-3 = assay: Growth inhibition of human SKOV3 cells after 48 hrs by sulforhodamine B assay; conditions: SK-OV-3, 48 h; for CC50: read-out: LC50 (the source's name)
NCI-H522 = assay: Growth inhibition of human NCI-H522 cells assessed as cell growth at 10 uM after 48 hrs by sulforhodamine B assay relative to control; conditions: NCI-H522, 48 h, read-out: Activity
DU-145 = assay: Growth inhibition of human DU145 cells after 48 hrs by sulforhodamine B assay; conditions: DU-145, 48 h; for CC50: read-out: LC50 (the source's name)
ACHN = assay: Growth inhibition of human ACHN cells assessed as cell growth at 10 uM after 48 hrs by sulforhodamine B assay relative to control; conditions: read-out: Activity
MOLT-4 [6] = assay: Growth inhibition of human MOLT4 cells after 48 hrs by sulforhodamine B assay; conditions: MOLT-4, 48 h
MOLT-4 [7] = assay: Growth inhibition of human MOLT4 cells assessed as cell growth at 10 uM after 48 hrs by sulforhodamine B assay relative to control; conditions: MOLT-4, 48 h, read-out: Activity
CCRF-CEM = assay: Growth inhibition of human CCRF-CEM cells assessed as cell growth at 10 uM after 48 hrs by sulforhodamine B assay relative to control; conditions: read-out: Activity
[8] = Growth inhibition of human EKVX cells after 48 hrs by sulforhodamine B assay; conditions: for CC50: read-out: LC50 (the source's name)
SN12C [9] = assay: Growth inhibition of human SN12C cells after 48 hrs by sulforhodamine B assay; conditions: for CC50: read-out: LC50 (the source's name)
MDA-MB-231 = assay: Growth inhibition of human MDA-MB-231 cells after 48 hrs by sulforhodamine B assay; conditions: MDA-MB-231, 48 h; for CC50: read-out: LC50 (the source's name)
SNB-75 = assay: Growth inhibition of human SNB75 cells assessed as cell growth at 10 uM after 48 hrs by sulforhodamine B assay relative to control; conditions: SNB-75, 48 h, read-out: Activity
RXF 393 = assay: Growth inhibition of human RXF393 cells after 48 hrs by sulforhodamine B assay; conditions: RXF 393, 48 h; for CC50: read-out: LC50 (the source's name)
HCT-116 = assay: Growth inhibition of human HCT116 cells assessed as cell growth at 10 uM after 48 hrs by sulforhodamine B assay relative to control; conditions: HCT-116, 48 h, read-out: Activity
OVCAR-8 = assay: Growth inhibition of human OVCAR8 cells after 48 hrs by sulforhodamine B assay; conditions: OVCAR-8, 48 h
MDA-MB-435 = assay: Growth inhibition of human MDA-MB-435 cells assessed as cell growth at 10 uM after 48 hrs by sulforhodamine B assay relative to control; conditions: MDA-MB-435, 48 h, read-out: Activity
MCF7 = assay: Growth inhibition of human MCF7 cells assessed as cell growth at 10 uM after 48 hrs by sulforhodamine B assay relative to control; conditions: MCF7, 48 h, read-out: Activity
TK-10 = assay: Growth inhibition of human TK10 cells after 48 hrs by sulforhodamine B assay; conditions: TK-10, 48 h; for CC50: read-out: LC50 (the source's name)

CCCCN(CCCC)CCCNc1nc2c(c(=N)n1-c1ccccc1)c(=S)n(-c1ccccc1)c(=S)n2-c1ccccc1 gave a GI50 (NCI-H460) of 0.4 µM, an LC50 (NCI-H460) of 4 µM and a TGI (NCI-H460) of 1.6 µM. For the same compound, the growth at 10 µM [1] was -64.6%, the GI50 (OVCAR-3) was 0.8 µM and the LC50 (OVCAR-3) was 4.6 µM. The TGI (OVCAR-3) was 2.1 µM, the GI50 (HT-29) was 0.2 µM and the TGI (HT-29) was 0.5 µM. For the same compound, the CC50 (HT-29) was 1.8 µM, the growth at 10 µM (T47D) was -62.1% and the growth at 10 µM (786-0) was -100%. For the same compound, the growth at 10 µM (SR) was -65.2%, the GI50 [2] was 0.5 µM and the TGI [2] was 1.9 µM. For the same compound, the CC50 [2] was 5.5 µM, the GI50 (SW-620 [3]) was 0.4 µM and the LC50 (SW-620 [3]) was 3.7 µM. The TGI (SW-620 [3]) was 1.4 µM, the growth at 10 µM (U-251) was -100% and the growth at 10 µM (SN12C [4]) was -99.2%. The GI50 (HOP-62) was 1.2 µM, the LC50 (HOP-62) was 5.4 µM and the TGI (HOP-62) was 2.6 µM. It also gave a growth at 10 µM (K562) of -90.3%, a growth at 10 µM (OVCAR-4) of -82% and a growth at 10 µM (IGROV-1) of -70.9%. It also gave a growth at 10 µM (SW-620 [5]) of -100%, a GI50 (SNB-19) of 1.2 µM and a TGI (SNB-19) of 2.7 µM. For the same compound, the CC50 (SNB-19) was 5.8 µM, the growth at 10 µM (M14) was -86.3% and the GI50 (SK-OV-3) was 1.5 µM. It also gave a TGI (SK-OV-3) of 2.9 µM, a CC50 (SK-OV-3) of 5.8 µM and a growth at 10 µM (NCI-H522) of -54.8%. It also gave a GI50 (DU-145) of 1.1 µM, a TGI (DU-145) of 2.3 µM and a CC50 (DU-145) of 4.8 µM. It also gave a growth at 10 µM (ACHN) of -95.8%, a GI50 (MOLT-4 [6]) of 0.3 µM and a growth at 10 µM (MOLT-4 [7]) of -55.8%. It also gave a growth at 10 µM (CCRF-CEM) of -78.4%, a GI50 [8] of 0.4 µM and a TGI [8] of 1.9 µM. The CC50 [8] was 4.7 µM, the GI50 (SN12C [9]) was 1.2 µM and the TGI (SN12C [9]) was 2.4 µM. For the same compound, the CC50 (SN12C [9]) was 4.9 µM, the GI50 (MDA-MB-231) was 0.3 µM and the TGI (MDA-MB-231) was 0.9 µM. It also gave a CC50 (MDA-MB-231) of 3 µM, a growth at 10 µM (SNB-75) of -94.2% and a GI50 (RXF 393) of 0.2 µM. It also gave a TGI (RXF 393) of 0.5 µM, a CC50 (RXF 393) of 36.8 µM and a growth at 10 µM (HCT-116) of -25%. It also gave a GI50 (OVCAR-8) of 0.9 µM, a TGI (OVCAR-8) of 2.7 µM and a growth at 10 µM (MDA-MB-435) of -100%. For the same compound, the growth at 10 µM (MCF7) was -88%, the GI50 (TK-10) was 1.3 µM and the TGI (TK-10) was 2.7 µM. The CC50 (TK-10) was 5.6 µM.

CN(C)CCNc1nc2c(c(=N)n1-c1ccccc1)c(=S)n(-c1ccccc1)c(=S)n2-c1ccccc1 gave a GI50 (NCI-H460) of 3.2 µM, an LC50 (NCI-H460) of 61.2 µM and a TGI (NCI-H460) of 11.8 µM. For the same compound, the growth at 10 µM [1] was 12.3%, the GI50 (OVCAR-3) was 3 µM and the LC50 (OVCAR-3) was 45.4 µM. The TGI (OVCAR-3) was 12.5 µM, the GI50 (HT-29) was 1.4 µM and the TGI (HT-29) was 3.4 µM. For the same compound, the CC50 (HT-29) was 8.3 µM, the growth at 10 µM (T47D) was -19.4% and the growth at 10 µM (786-0) was -83.5%. The growth at 10 µM (SR) was 34.7%, the GI50 [2] was 2.3 µM and the TGI [2] was 7.7 µM. It also gave a CC50 [2] of 40 µM, a GI50 (SW-620 [3]) of 2.1 µM and an LC50 (SW-620 [3]) of 18.8 µM. It also gave a TGI (SW-620 [3]) of 5.1 µM, a growth at 10 µM (U-251) of 2.1% and a growth at 10 µM (SN12C [4]) of 52.3%. For the same compound, the GI50 (HOP-62) was 2.9 µM, the LC50 (HOP-62) was 55.6 µM and the TGI (HOP-62) was 10.1 µM. The growth at 10 µM (K562) was -11.4%, the growth at 10 µM (OVCAR-4) was 41.7% and the growth at 10 µM (IGROV-1) was 36.3%. For the same compound, the growth at 10 µM (SW-620 [5]) was -59.1%, the GI50 (SNB-19) was 4.9 µM and the TGI (SNB-19) was 19 µM. For the same compound, the CC50 (SNB-19) was 50 µM, the growth at 10 µM (M14) was -84.4% and the GI50 (SK-OV-3) was 10.3 µM. It also gave a TGI (SK-OV-3) of 24.1 µM, a CC50 (SK-OV-3) of 56.7 µM and a growth at 10 µM (NCI-H522) of 3.16%. It also gave a GI50 (DU-145) of 5.3 µM, a TGI (DU-145) of 18.8 µM and a CC50 (DU-145) of 48.8 µM. For the same compound, the growth at 10 µM (ACHN) was 28.3%, the GI50 (MOLT-4 [6]) was 1.8 µM and the LC50 (MOLT-4 [6]) was 17.2 µM. The TGI (MOLT-4 [6]) was 4.7 µM, the growth at 10 µM (MOLT-4 [7]) was 3.92% and the growth at 10 µM (CCRF-CEM) was -8.26%. It also gave a GI50 [8] of 12.1 µM, a TGI [8] of 32.2 µM and a CC50 [8] of 85.8 µM. It also gave a GI50 (SN12C [9]) of 6.2 µM, a TGI (SN12C [9]) of 19.9 µM and a CC50 (SN12C [9]) of 48 µM. It also gave a GI50 (MDA-MB-231) of 1.8 µM, a TGI (MDA-MB-231) of 5.6 µM and a CC50 (MDA-MB-231) of 24.7 µM. It also gave a growth at 10 µM (SNB-75) of 79%, a GI50 (RXF 393) of 1.2 µM and a TGI (RXF 393) of 3.1 µM. It also gave a CC50 (RXF 393) of 8.1 µM, a growth at 10 µM (HCT-116) of -22.1% and a GI50 (OVCAR-8) of 4.1 µM. It also gave a TGI (OVCAR-8) of 15.7 µM, a CC50 (OVCAR-8; read-out: LC50 (the source's name)) of 58.7 µM and a growth at 10 µM (MDA-MB-435) of -64.5%. The growth at 10 µM (MCF7) was 17.9%, the GI50 (TK-10) was 3.5 µM and the TGI (TK-10) was 14.3 µM. It also gave a CC50 (TK-10) of 48.8 µM.

Reference: ChEMBL document CHEMBL2440027, “Further SAR studies on bicyclic basic merbarone analogues as potent antiproliferative agents” (Bioorg Med Chem, 2013)
